Where a name gives a salt, the structure may show the parent alone. Read-outs that look alike come from different tables or passages of the source. *1 amine or outer side, *2 acyl side, *3 side chain or, on linkers, in order; H or OH if unused. Where a SMILES comes first, the peptide text is derived from it. Bridges are numbered along the chain shown (N, C = ends). X1 = O=C(CCC[*:2])[*:1]
Legend:
[1] = target: T1, SARS-CoV-2 PLpro (nsp3 1564–1878) (Severe acute respiratory syndrome coronavirus 2, UniProt P0DTD1); experiment: biochemical; parameters: FRET-quenched peptide (Pro3) cleavage by PLpro, 10 min pre-incubation, slope over 20 min, normalised to no-compound control; settings: low concentration screen, read-out: % of control remaining
[2] = target: T1, SARS-CoV-2 PLpro (nsp3 1564–1878); experiment: biochemical; parameters: FRET-quenched peptide (Pro3) cleavage by PLpro, 10 min pre-incubation, slope over 20 min, normalised to no-compound control; settings: high concentration screen, read-out: % of control remaining

## C#C[C@]1(O)CC[C@H]2[C@@H]3CCC4=Cc5nc6nc7ccccc7n6cc5C[C@]4(C)[C@H]3CC[C@@]21C [WIN 62,577]
[1]; Well no.=1196
  remaining activity at 1.25 µM: 99.9%
[2]; Well no.=1196
  remaining activity at 3.75 µM: 97.4%

## O=C(O)c1cc(O)ccc1O [Gentisic acid]
[1]; Well no.=3955
  remaining activity at 1.25 µM: 110%
[2]; Well no.=3955
  remaining activity at 3.75 µM: 100%

## N#Cc1c(C2CCNCC2)cc(-c2c(O)cccc2OCC2CC2)nc1N [IKK-2 Inhibitor VIII]
[1]; Well no.=2441
  remaining activity at 1.25 µM: 104%
[2]; Well no.=2441
  remaining activity at 3.75 µM: 108%

## CC(C)NCC(O)COc1ccc(CCOCC2CC2)cc1 (centres unmarked) [Betaxolol.HCl]
[1]; Well no.=1735
  remaining activity at 1.25 µM: 99.1%
[2]; Well no.=1735
  remaining activity at 3.75 µM: 99.8%

## NNC(N)=O [Semicarbazide hydrochloride]
[1]; Well no.=1406
  remaining activity at 1.25 µM: 99.7%
[2]; Well no.=1406
  remaining activity at 3.75 µM: 99.4%

## CN(CCOc1ccc(CC2SC(=O)NC2=O)cc1)c1ccccn1 (centres unmarked) [Rosiglitazone HCl]
[1]; Well no.=4758
  remaining activity at 1.25 µM: 102%
[2]; Well no.=4758
  remaining activity at 3.75 µM: 97.3%

## O=S(=O)(NCCN1CCNCC1)c1ccc(NC2CCCCC2)c(NCc2ccccc2)c1 [UAMC-3203 hydrochloride]
[1]; Well no.=6780
  remaining activity at 1.25 µM: 105%
[2]; Well no.=6780
  remaining activity at 3.75 µM: 102%

## N[C@@H](Cc1ccccc1)C(=O)N[C@@H](Cc1ccccc1)C(=O)O [H-Phe-Phe-OH] (H-Phe-Phe-OH)
[1]; Well no.=8742
  remaining activity at 1.25 µM: 96.6%
[2]; Well no.=8742
  remaining activity at 3.75 µM: 104%

## N#Cc1ccc(COC[C@H]2O[C@@H](n3c(NCc4ccc(Cl)c(Cl)c4)nc4c(N)ncnc43)[C@H](O)[C@@H]2O)cc1 [VER155008]
[1]; Well no.=8816
  remaining activity at 1.25 µM: 89.7%
[2]; Well no.=8816
  remaining activity at 3.75 µM: 89.6%

## CC[C@H](C)[C@@H]1NC(=O)[C@H](Cc2ccc(OC)cc2)NC(=O)CCCSC[C@@H](C(=O)N2CCC[C@H]2C(=O)N[C@@H](CC(C)C)C(=O)NCC(N)=O)NC(=O)[C@H](CC(N)=O)NC(=O)[C@H](CCC(N)=O)NC1=O [Carbetocin] (Y(Me)IQNCPLG-NH2; linker N-5 via X1)
[1]; Well no.=8293
  remaining activity at 1.25 µM: 102%
[2]; Well no.=8293
  remaining activity at 3.75 µM: 101%

## O=C(NCCCCN1CCN(c2cccc(Cl)c2Cl)CC1)c1ccc2c(c1)Cc1ccccc1-2 [NGB 2904 hydrochloride]
[1]; Well no.=5407
  remaining activity at 1.25 µM: 97.8%
[2]; Well no.=5407
  remaining activity at 3.75 µM: 101%

## CCN(CC)C(=O)c1ccc(C2=CC3(CCNCC3)Oc3cccc(O)c32)cc1 [ADL5859 HCl]
[1]; Well no.=5051
  remaining activity at 1.25 µM: 101%
[2]; Well no.=5051
  remaining activity at 3.75 µM: 98.3%

## NC1=N[C@@]2(c3cc(NC(=O)c4ccc(F)cn4)ccc3F)COC[C@H]2CS1 [LY2886721]
[1]; Well no.=4774
  remaining activity at 1.25 µM: 99.9%
[2]; Well no.=4774
  remaining activity at 3.75 µM: 102%

## CN(C)c1nc(N(C)C)nc(N(C)C)n1 [Altretamine]
[1]; Well no.=8
  remaining activity at 1.25 µM: 96%
[1]; Well no.=2081
  remaining activity at 1.25 µM: 101%
[2]; Well no.=8
  remaining activity at 3.75 µM: 98.2%
[2]; Well no.=2081
  remaining activity at 3.75 µM: 101%

## C[C@@H]1[C@@H]2Cc3ccc(O)cc3[C@@]1(C)CCN2CC1CC1 [(+)-Cyclazocine]
[1]; Well no.=583
  remaining activity at 1.25 µM: 72.1%
[2]; Well no.=583
  remaining activity at 3.75 µM: 98.8%

## Cc1cccc(C)c1OCC(C)N (centres unmarked) [Mexiletene hydrochloride]
[1]; Well no.=1066
  remaining activity at 1.25 µM: 102%
[2]; Well no.=1066
  remaining activity at 3.75 µM: 99.6%

## CCCCCC(=O)/C=C/[C@@H]1[C@@H](C/C=C\CCCC(=O)O)[C@@H](O)C[C@H]1O [15-keto-prostaglandin F2a]
[1]; Well no.=4571
  remaining activity at 1.25 µM: 90.1%
[2]; Well no.=4571
  remaining activity at 3.75 µM: 88.5%

## COc1ccc(C[C@H](NC(=O)[C@H](C)NC(=O)CN2CCOCC2)C(=O)N[C@@H](Cc2ccccc2)C(=O)[C@@]2(C)CO2)cc1 [ONX-0914 (PR-957)]
[1]; Well no.=9126
  remaining activity at 1.25 µM: 90%
[2]; Well no.=9126
  remaining activity at 3.75 µM: 93.6%

## CCCCCCCCCCCCCCCCOC[C@H](CO)OC [1-Hexadecyl-2-O-methyl-glycerol]
[1]; Well no.=4572
  remaining activity at 1.25 µM: 97.5%
[2]; Well no.=4572
  remaining activity at 3.75 µM: 99.2%

## COCCOc1ccc2c(c1)ncn2-c1ccc2cccc(N3CCC(N)CC3)c2n1 [CP 673451]
[1]; Well no.=5285
  remaining activity at 1.25 µM: 97.9%
[2]; Well no.=5285
  remaining activity at 3.75 µM: 102%

## CC(=O)Nc1nc(C)c(S(=O)(=O)Nc2ccc(C(O)(C(F)(F)F)C(F)(F)F)cc2)s1 [SR1001]
[1]; Well no.=8467
  remaining activity at 1.25 µM: 106%
[2]; Well no.=5461
  remaining activity at 3.75 µM: 111%
[2]; Well no.=8467
  remaining activity at 3.75 µM: 106%

## COc1ccc2[nH]cc(CCNC(C)=O)c2c1 [Melatonin]
[1]; Well no.=1072
  remaining activity at 1.25 µM: 98.6%
[1]; Well no.=1665
  remaining activity at 1.25 µM: 106%
[1]; Well no.=3320
  remaining activity at 1.25 µM: 99.3%
[1]; Well no.=3990
  remaining activity at 1.25 µM: 101%
[1]; Well no.=6347
  remaining activity at 1.25 µM: 97.8%
[1]; Well no.=6565
  remaining activity at 1.25 µM: 103%
[2]; Well no.=1072
  remaining activity at 3.75 µM: 101%
[2]; Well no.=1665
  remaining activity at 3.75 µM: 107%
[2]; Well no.=3320
  remaining activity at 3.75 µM: 98.5%
[2]; Well no.=6347
  remaining activity at 3.75 µM: 102%
[2]; Well no.=6565
  remaining activity at 3.75 µM: 96.1%

## CN(C)CCCN1c2ccccc2Sc2ccc(C(F)(F)F)cc21 [Triflupromazine (hydrochloride)]
[1]; Well no.=6373
  remaining activity at 1.25 µM: 105%
[2]; Well no.=6373
  remaining activity at 3.75 µM: 103%

## CN1CCN(C2=Nc3ccccc3Oc3ccc(Cl)cc32)CC1 [Loxapine succinate]
[1]; Well no.=1125
  remaining activity at 1.25 µM: 93.3%
[2]; Well no.=1125
  remaining activity at 3.75 µM: 89.7%

## C/C=C1/CN2CC[C@]34C(=C(C=O)[C@H]1C[C@H]23)Nc1ccccc14 [Norfluorocurarine]
[1]; Well no.=3165
  remaining activity at 1.25 µM: 95.2%
[2]; Well no.=3165
  remaining activity at 3.75 µM: 97.4%

## CCCN1C[C@H](CSC)C[C@@H]2c3cccc4[nH]cc(c34)C[C@H]21 [Pergolide mesylate]
[1]; Well no.=1602
  remaining activity at 1.25 µM: 94.9%
[2]; Well no.=1602
  remaining activity at 3.75 µM: 97.1%

## Nc1ccn([C@@H]2O[C@H](COP(=O)(O)O)[C@@H](O)[C@H]2O)c(=O)n1 [5'-Cytidylic acid]
[1]; Well no.=8883
  remaining activity at 1.25 µM: 83.4%
[2]; Well no.=8883
  remaining activity at 3.75 µM: 86.7%

## CC(CC(c1ccccc1)c1ccccc1)NC(C)(C)C (centres unmarked) [Terodiline hydrochloride]
[1]; Well no.=5438
  remaining activity at 1.25 µM: 94.4%
[2]; Well no.=5438
  remaining activity at 3.75 µM: 99.3%

## NC(N)=NC(=O)c1nc(Cl)c(N2CCCCCC2)nc1N [5-(N,N-hexamethylene)amiloride]
[1]; Well no.=106
  remaining activity at 1.25 µM: 104%
[2]; Well no.=106
  remaining activity at 3.75 µM: 104%

## CC(C)(CO)c1cc2cc(NC(=O)C3(c4ccc5c(c4)OC(F)(F)O5)CC3)c(F)cc2n1C[C@@H](O)CO [VX-661]
[1]; Well no.=4780
  remaining activity at 1.25 µM: 97%
[2]; Well no.=4780
  remaining activity at 3.75 µM: 94.1%

## CCC(=O)OCC(=O)[C@@]1(OC(=O)CC)[C@@H](C)C[C@H]2[C@@H]3CCC4=CC(=O)C=C[C@]4(C)[C@@]3(F)[C@@H](O)C[C@@]21C [Betamethasone dipropionate]
[1]; Well no.=7091
  remaining activity at 1.25 µM: 93.4%
[2]; Well no.=7091
  remaining activity at 3.75 µM: 98.8%

— publication PMC8286840, “Identifying SARS-CoV-2 antiviral compounds by screening for small molecule inhibitors of Nsp3 papain-like protease” (Biochemical Journal, 2021)
